Results on 33 compounds are retold here after patent US20240317721A1, “PYRAZOLYL DERIVATIVES AS INHIBITORS OF THE KRAS MUTANT PROTEIN” (NOVARTIS AG, priority 2021, published 2024).

In general, IC50 refers to the concentration at which inhibition is half-maximal.

This test addresses KRasG12C (M1-K169, biotinylated on the N-terminus) (Homo sapiens (Human), UniProt P01116, G12C). Description: Covalent competition assay: scintillation proximity assay (SPA) quantifying covalent modification of KRASG12C. It is filed as binding. The conditions noted are these: competition with radiolabeled covalent probe (Compound B/Compound A), 2 hours incubation, 10 nM KRasG12C. The method, boiled down: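 Test compounds compete with a radiolabeled covalent probe for modification of N-terminally biotinylated KRasG12C(M1-K169):GDP, final 10 nM protein, 25 nM radio-ligand, 475 nM unlabelled ligand, 2 h with agitation in 20 mM Tris-HCl pH 7.5, 150 mM NaCl, 0.1 mM MgCl2, 0.01% Tween-20.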
(In general: Scintillation proximity formats need no separation of bound from free tracer.)
For the compound `C=CC(=O)N1CC2(CC(n3nc(N4CCC(O)(CN5CCOCC5)CC4(C)C)c(-c4c(Cl)c(Cl)cc5[nH]ncc45)c3C)C2)C1` (single isomer, unassigned) [Example 237b, 1-(6-(4-(5,6-dichloro-1H-indazol-4-yl)-3-(4-hydroxy-2,2-dimethyl-4-(morpholinomethyl)piperidin-1-yl)-5-methyl-1H-pyrazol-1-yl)-2-azaspiro[3.3]heptan-2-yl)prop-2-en-1-one], the IC50 was 31 nM. To `C=CC(=O)N1CC2(CC(n3nc(N4CCC(O)(CN5CCOCC5)CC4(C)C)c(-c4c(Cl)c(Cl)cc5[nH]ncc45)c3C)C2)C1` (single isomer, unassigned) [Example 238a, 1-(6-(4-(5,6-dichloro-1H-indazol-4-yl)-3-(4-hydroxy-2,2-dimethyl-4-(morpholinomethyl)piperidin-1-yl)-5-methyl-1H-pyrazol-1-yl)-2-azaspiro[3.3]heptan-2-yl)prop-2-en-1-one] belongs 36 nM; to `C=CC(=O)N1CC2(CC(n3nc(N4CCC(O)(CN5CCOCC5)CC4(C)C)c(-c4c(Cl)c(Cl)cc5[nH]ncc45)c3C)C2)C1` (single isomer, unassigned) [Example 238b, 1-(6-(4-(5,6-dichloro-1H-indazol-4-yl)-3-(4-hydroxy-2,2-dimethyl-4-(morpholinomethyl)piperidin-1-yl)-5-methyl-1H-pyrazol-1-yl)-2-azaspiro[3.3]heptan-2-yl)prop-2-en-1-one], 503 nM. To `C=CC(=O)N1CC2(CC(n3nc(N4CCC(CN5CCN(C)C(=O)C5)CC4(C)C)c(-c4c(Cl)c(Cl)cc5[nH]ncc45)c3C)C2)C1` (single isomer, unassigned) [Example 239a, 4-((1-(1-(2-acryloyl-2-azaspiro[3.3]heptan-6-yl)-4-(5,6-dichloro-1H-indazol-4-yl)-5-methyl-1H-pyrazol-3-yl)-2,2-dimethylpiperidin-4-yl)methyl)-1-methylpiperazin-2-one] belongs 1600 nM. With `C=CC(=O)N1CC2(CC(n3nc(N4CCC(CN5CCN(C)C(=O)C5)CC4(C)C)c(-c4c(Cl)c(Cl)cc5[nH]ncc45)c3C)C2)C1` (single isomer, unassigned) [Example 239b, 4-((1-(1-(2-acryloyl-2-azaspiro[3.3]heptan-6-yl)-4-(5,6-dichloro-1H-indazol-4-yl)-5-methyl-1H-pyrazol-3-yl)-2,2-dimethylpiperidin-4-yl)methyl)-1-methylpiperazin-2-one], the IC50 is 9 nM.

As to `C=CC(=O)N1CC2(CC(n3nc(N4CCC(CN5CCN(C)CC5=O)CC4(C)C)c(-c4c(Cl)c(Cl)cc5[nH]ncc45)c3C)C2)C1` (single isomer, unassigned) [Example 240a, 1-((1-(1-(2-acryloyl-2-azaspiro[3.3]heptan-6-yl)-4-(5,6-dichloro-1H-indazol-4-yl)-5-methyl-1H-pyrazol-3-yl)-2,2-dimethylpiperidin-4-yl)methyl)-4-methylpiperazin-2-one], the IC50 was found to be 390 nM.

On to `C=CC(=O)N1CC2(CC(n3nc(N4CCC(CN5CCN(C)CC5=O)CC4(C)C)c(-c4c(Cl)c(Cl)cc5[nH]ncc45)c3C)C2)C1` (single isomer, unassigned) [Example 240b, 1-((1-(1-(2-acryloyl-2-azaspiro[3.3]heptan-6-yl)-4-(5,6-dichloro-1H-indazol-4-yl)-5-methyl-1H-pyrazol-3-yl)-2,2-dimethylpiperidin-4-yl)methyl)-4-methylpiperazin-2-one], for which the IC50 was 8 nM. With `C=CC(=O)N1CC2(CC(n3nc(N4CC[C@@H](CN5CCOCC5)CC4(C)C)c(-c4c(Cl)c(Cl)cc5[nH]nc(N)c45)c3C)C2)C1` (single isomer, unassigned) [Example 241a] the figure was 8 nM; with `C=CC(=O)N1CC2(CC(n3nc(N4CC[C@@H](CN5CCOCC5)CC4(C)C)c(-c4c(Cl)c(Cl)cc5[nH]nc(N)c45)c3C)C2)C1` (single isomer, unassigned) [Example 241b], 536 nM; with `C=CC(=O)N1CC2(CC(n3nc(N4CC[C@@H](CN5CCOCC5)CC4(C)C)c(-c4c(Cl)c(C)cc5[nH]nc(N)c45)c3C)C2)C1` (single isomer, unassigned) [Example 242a], 13 nM. With `C=CC(=O)N1CC2(CC(n3nc(N4CC[C@@H](CN5CCOCC5)CC4(C)C)c(-c4c(Cl)c(C)cc5[nH]nc(N)c45)c3C)C2)C1` (single isomer, unassigned) [Example 242b] the figure was 1400 nM. With `C=CC(=O)N1CC2(CC(n3nc(N4CC[C@@H](CN5CCN(C6COC6)CC5)CC4(C)C)c(-c4c(Cl)c(Cl)cc5[nH]ncc45)c3C)C2)C1` (single isomer, unassigned) [Example 243a] the figure was 3800 nM; with `C=CC(=O)N1CC2(CC(n3nc(N4CC[C@@H](CN5CCN(C6COC6)CC5)CC4(C)C)c(-c4c(Cl)c(Cl)cc5[nH]ncc45)c3C)C2)C1` (single isomer, unassigned) [Example 243b], 6 nM; with `C=CC(=O)N1CC2(CC(n3nc(N4CC[C@@H](CN5CCN(C6COC6)CC5)CC4(C)C)c(-c4c(C)c(Cl)cc5[nH]ncc45)c3C)C2)C1` (single isomer, unassigned) [Example 244a], 1400 nM. For the compound `C=CC(=O)N1CC2(CC(n3nc(N4CC[C@@H](CN5CCN(C6COC6)CC5)CC4(C)C)c(-c4c(C)c(Cl)cc5[nH]ncc45)c3C)C2)C1` (single isomer, unassigned) [Example 244b], the IC50 was 6 nM. To `C=CC(=O)N1CC2(CC(n3nc(N4CC[C@@H](CN5CCN(C6COC6)CC5)CC4(C)C)c(-c4c(Cl)c(F)cc5[nH]ncc45)c3C)C2)C1` (single isomer, unassigned) [Example 245a] belongs 1800 nM; to `C=CC(=O)N1CC2(CC(n3nc(N4CC[C@@H](CN5CCN(C6COC6)CC5)CC4(C)C)c(-c4c(Cl)c(F)cc5[nH]ncc45)c3C)C2)C1` (single isomer, unassigned) [Example 245b], 14 nM; to `C=CC(=O)N1CC2(CC(n3nc(N4CC[C@@H](CN5CCN(C6COC6)CC5)CC4(C)C)c(-c4c(Cl)c(C)cc5[nH]ncc45)c3C)C2)C1` (single isomer, unassigned) [Example 246a], over 5000 nM.

Consider `C=CC(=O)N1CC2(CC(n3nc(N4CC[C@@H](CN5CCN(C6COC6)CC5)CC4(C)C)c(-c4c(Cl)c(C)cc5[nH]ncc45)c3C)C2)C1` (single isomer, unassigned) [Example 246b], for which the IC50 is 15 nM. To `C=CC(=O)N1CC2(CC(n3nc(N4CC[C@@H](CN5CCO[C@@H](CO)C5)CC4(C)C)c(-c4c(Cl)c(Cl)cc5[nH]ncc45)c3C)C2)C1` (single isomer, unassigned) [Example 247a] belongs 1400 nM; to `C=CC(=O)N1CC2(CC(n3nc(N4CC[C@@H](CN5CCO[C@@H](CO)C5)CC4(C)C)c(-c4c(Cl)c(Cl)cc5[nH]ncc45)c3C)C2)C1` (single isomer, unassigned) [Example 247b], 9 nM; to `C=CC(=O)N1CC2(CC(n3nc(N4CC[C@@H](CN5CC6(C5)CS(=O)(=O)C6)CC4(C)C)c(-c4c(Cl)c(Cl)cc5[nH]ncc45)c3C)C2)C1` (single isomer, unassigned) [Example 248a], over 5000 nM. Consider `C=CC(=O)N1CC2(CC(n3nc(N4CC[C@@H](CN5CC6(C5)CS(=O)(=O)C6)CC4(C)C)c(-c4c(Cl)c(Cl)cc5[nH]ncc45)c3C)C2)C1` (single isomer, unassigned) [Example 248b], for which the 50% inhibitory concentration (IC50) was determined as 9 nM.

As for `C=CC(=O)N1CC2(CC(n3nc(N4CC[C@@H](CN5C[C@@H]6C[C@H]5CS6(=O)=O)CC4(C)C)c(-c4c(Cl)c(Cl)cc5[nH]ncc45)c3C)C2)C1` (single isomer, unassigned) [Example 249a], the half-inhibitory concentration (IC50) was over 5000 nM. On to `C=CC(=O)N1CC2(CC(n3nc(N4CC[C@@H](CN5C[C@@H]6C[C@H]5CS6(=O)=O)CC4(C)C)c(-c4c(Cl)c(Cl)cc5[nH]ncc45)c3C)C2)C1` (single isomer, unassigned) [Example 249b], for which the IC50 was 13 nM. To `C=CC(=O)N1CC2(CC(n3nc(N4CC[C@@H](CN5CCn6cnnc6C5)CC4(C)C)c(-c4c(Cl)c(Cl)cc5[nH]ncc45)c3C)C2)C1` (single isomer, unassigned) [Example 250a] belongs 405 nM. With `C=CC(=O)N1CC2(CC(n3nc(N4CC[C@@H](CN5CCn6cnnc6C5)CC4(C)C)c(-c4c(Cl)c(Cl)cc5[nH]ncc45)c3C)C2)C1` (single isomer, unassigned) [Example 250b] the figure was 8 nM. To `C=CC(=O)N1CC2(CC(n3nc(N4CC[C@@H](CN5CCN(CCO)C(=O)C5)CC4(C)C)c(-c4c(Cl)c(Cl)cc5[nH]ncc45)c3C)C2)C1` (single isomer, unassigned) [Example 251a] belongs over 5000 nM; to `C=CC(=O)N1CC2(CC(n3nc(N4CC[C@@H](CN5CCN(CCO)C(=O)C5)CC4(C)C)c(-c4c(Cl)c(Cl)cc5[nH]ncc45)c3C)C2)C1` (single isomer, unassigned) [Example 251b], 9 nM; to `C=CC(=O)N1CC2(CC(n3nc(N4CC[C@@H](CN(C)CC(=O)N5CCCC5)CC4(C)C)c(-c4c(Cl)c(Cl)cc5[nH]ncc45)c3C)C2)C1` (single isomer, unassigned) [Example 252a], over 5000 nM. On to `C=CC(=O)N1CC2(CC(n3nc(N4CC[C@@H](CN(C)CC(=O)N5CCCC5)CC4(C)C)c(-c4c(Cl)c(Cl)cc5[nH]ncc45)c3C)C2)C1` (single isomer, unassigned) [Example 252b], for which the IC50 came out at 6 nM. To `C=CC(=O)N1CC2(CC(n3nc(N4CC[C@@H](CN(CCO)CCOC)CC4(C)C)c(-c4c(Cl)c(Cl)cc5[nH]ncc45)c3C)C2)C1` (single isomer, unassigned) [Example 253a] belongs 1500 nM. To `C=CC(=O)N1CC2(CC(n3nc(N4CC[C@@H](CN(CCO)CCOC)CC4(C)C)c(-c4c(Cl)c(Cl)cc5[nH]ncc45)c3C)C2)C1` (single isomer, unassigned) [Example 253b] belongs 8 nM.
